# Key:
# Conditions in all cases: 72 h
# U2OS [1] = test: drug sensitivity score (DSS) for viability; higher = more toxic; extreme values may be limits of the assay
# Calu-3 [2] = test: as above
# HepG2 [3] = test: as above
# Vero E6 [4] = test: as above
# Caco-2 [5] = test: as above
# U2OS [6] = test: relative viability EC50 (midpoint between 100% and the lowest measured viability); higher = less toxic
# Calu-3 [7] = test: as above
# HepG2 [8] = test: as above
# Vero E6 [9] = test: as above
# Caco-2 [10] = test: as above
# U2OS [11] = test: cell viability relative to DMSO; higher = less toxic
# Calu-3 [12] = test: as above
# HepG2 [13] = test: as above
# Vero E6 [14] = test: as above
# Caco-2 [15] = test: as above
SMILES,drug sensitivity score (U2OS [1]),drug sensitivity score (Calu-3 [2]),drug sensitivity score (HepG2 [3]),drug sensitivity score (Vero E6 [4]),drug sensitivity score (Caco-2 [5]),relative viability EC50 (U2OS [6]) [µM],relative viability EC50 (Calu-3 [7]) [µM],relative viability EC50 (HepG2 [8]) [µM],relative viability EC50 (Vero E6 [9]) [µM],relative viability EC50 (Caco-2 [10]) [µM],cell viability (U2OS [11]; 1 nM) [%],cell viability (U2OS [11]; 10 nM) [%],cell viability (U2OS [11]; 100 nM) [%],cell viability (U2OS [11]; 1000 nM) [%],cell viability (U2OS [11]; 10000 nM) [%],cell viability (Calu-3 [12]; 1 nM) [%],cell viability (Calu-3 [12]; 10 nM) [%],cell viability (Calu-3 [12]; 100 nM) [%],cell viability (Calu-3 [12]; 1000 nM) [%],cell viability (Calu-3 [12]; 10000 nM) [%],cell viability (HepG2 [13]; 1 nM) [%],cell viability (HepG2 [13]; 10 nM) [%],cell viability (HepG2 [13]; 100 nM) [%],cell viability (HepG2 [13]; 1000 nM) [%],cell viability (HepG2 [13]; 10000 nM) [%],cell viability (Vero E6 [14]; 1 nM) [%],cell viability (Vero E6 [14]; 10 nM) [%],cell viability (Vero E6 [14]; 100 nM) [%],cell viability (Vero E6 [14]; 1000 nM) [%],cell viability (Vero E6 [14]; 10000 nM) [%],cell viability (Caco-2 [15]; 1 nM) [%],cell viability (Caco-2 [15]; 10 nM) [%],cell viability (Caco-2 [15]; 100 nM) [%],cell viability (Caco-2 [15]; 1000 nM) [%],cell viability (Caco-2 [15]; 10000 nM) [%]
CCCc1c(OCCCOc2ccc(OCC(=O)O)cc2)ccc(C(C)=O)c1O,0,0,0,0,0,> 10,> 10,> 10,> 10,> 10,94.3,98.6,93.4,96.5,102,101,94.8,93.6,101,107,102,106,107,104,92.8,107,99.5,106,102,94.2,97.2,90.6,88.8,95.7,103
CCc1ccc(/C=C2/SC(=S)NC2=O)cc1,0,0,0,,0,> 10,> 10,> 10,,> 10,97.9,95.9,99.8,94.9,96.7,101,87,97.9,93.4,103,98.2,106,93.7,95.9,95.6,,,,,,102,85.3,101,108,93.3
COc1ccc(S(=O)(=O)N2CCCN(S(=O)(=O)c3ccc(OC)c(OC)c3)CC2)cc1OC,0,0,0,,0,> 10,> 10,> 10,,> 10,98.6,96.1,99.3,100,97,89.1,84.7,102,94.4,92.1,99.3,100,79.4,98.7,110,,,,,,89.4,90.5,94.5,102,108
C[C@H]1CO[C@@H]2Cn3cc(C(=O)NCc4ccc(F)cc4F)c(=O)c(O)c3C(=O)N12,0,0,1.6,0,0.6,> 10,> 10,,> 10,> 10,95.6,92.4,99.4,92.2,88.5,109,94,104,95.2,92.2,104,112,97.1,112,56.9,88.9,99.7,94.3,97.5,89.6,107,90.1,98,98.5,81.6
Cc1cn2c(N)c(Cl)cc(C(=O)NCC3CCN(CC(C)C)CC3)c2n1,0,0,0.5,0,0,> 10,> 10,> 10,> 10,> 10,101,95.1,102,97.6,95.4,102,96.5,99.9,93.4,99.9,107,99.6,102,88.1,97.1,88,101,90.2,96.5,99.2,103,83.1,103,99.7,107
O=C(Oc1ccc(Br)cc1)N1CCN2CCC1CC2,0,0,0,0,0,> 10,> 10,> 10,> 10,> 10,99,102,104,99,98.4,97.5,101,101,100,95.7,97.7,101,97,103,108,94.2,101,93.5,95.5,104,101,105,94.2,98,102
O=C1CC2(CCCC2)CC(=O)N1CCNC[C@H]1COc2ccccc2O1,0,0,0,0,0,> 10,> 10,> 10,> 10,> 10,103,97,97.2,96.3,101,92.5,107,98.4,107,96.3,108,108,93.2,110,98.3,99.4,101,106,92.6,97.8,95.4,89,99.9,98.5,101
O=C(NC1CCN(Cc2ccccc2)CC1)c1ccc(I)cc1 [4-IBP],0,0,1.2,0,0,> 10,> 10,,> 10,> 10,102,99.9,101,97.6,98.8,104,104,104,95.9,102,94.5,108,104,105,68,109,106,107,101,93.2,104,101,99.4,103,88.8
Cc1c(O)c(=O)n(-c2ccccc2)n1C [4-hydroxy-phenazone],,0,0,0,0,,> 10,> 10,> 10,> 10,,,,,,107,105,101,96.8,102,102,103,110,96.6,115,98,98.3,103,103,92.9,98.7,98.7,90.2,92.3,90.6
CC#C[C@@H](CC(=O)O)c1ccc(OCc2cccc(-c3ccc(C(F)(F)F)cc3)c2)cc1 [AMG-837],0,0,,0,0,> 10,> 10,,> 10,> 10,101,94.7,99.9,95,93.9,104,104,110,92.7,94.9,,,,,,97.5,100,95.8,102,97.4,102,95.3,97.7,94.9,93.2
Cc1c(Cl)cccc1S(=O)(=O)Nc1nc(CC(=O)N2CCN(C)CC2)cs1 [BVT-2733],,0,0,0,0,,> 10,> 10,> 10,> 10,,,,,,108,102,92.5,102,106,104,101,92.7,104,97.4,103,101,107,102,94.6,106,92.6,100,106,98.3
O=c1[nH]nc2c3c(cccc13)N=C(CN1Cc3ccccc3C1)N2 [E7449],0.3,0.1,2.7,0.6,0,> 10,> 10,,> 10,> 10,105,106,106,94.7,87.3,109,99.1,98.6,97.6,88.6,95,103,98.6,95.9,59.8,102,100,96.3,96.3,83.7,127,104,102,99,89.1
c1cn2cc(-c3ccc4cn[nH]c4c3)nc(Nc3ccc(N4CCOCC4)cc3)c2n1 [GS-9973],0,0,0,,0,> 10,> 10,> 10,,> 10,94.1,101,98.2,98,92.2,95.2,103,90,94.3,92.7,105,103,100,93.8,92.5,,,,,,108,108,98.3,99.7,91.4
CCn1cc(-c2cccc(C(F)(F)F)c2)c2sc(C(=N)NC3CCS(=O)(=O)CC3)cc2c1=O [I-BRD9],0,1.2,2.1,0,0,> 10,> 10,,> 10,> 10,103,102,99.1,99.5,92,112,99.5,106,95.4,79.5,94.4,99.2,98.6,97.5,63.4,95.1,95.8,98.7,98.1,92.3,111,102,97,97.8,93.5
CCCn1c(=O)c2nc(C34CC5CC(CC3C5)C4)[nH]c2n(CCC)c1=O [KW-3902],0,0,0,,0.9,> 10,> 10,> 10,,> 10,98.8,96.5,100,99.5,102,83.8,89.3,92.6,96.6,100,94.2,92.9,98.2,101,91.6,,,,,,95.9,94.4,101,95.1,82.5

# From the supplement of paper PMC13380429
